Measurements reported in patent US11298338B2, “Compositions and methods for cancer therapy” (UNIVERSITY OF IOWA RESEARCH FOUNDATION, priority 2016, dated 2022).
“Also recorded” adds a separate entry of the source.

Legend:
OCI-MY5 cells = experiment: OCI-MY5 cell viability after 1 hr PAA treatment; format: cell-based, human; conditions: for effect of pre-treatment on PAA-induced cell death: OCI-MY5, catalase 100 U/ml, NAC 15 mM, DFO 200 μM or BCS 10 μM for 3 hrs before PAA, viability 24 hrs later
Procedure: FIGS. 2A-2D. […] OCI-MY5 EV (FIG. 2C) and OCI-MY5 OE-Fpn1 (FIG. 2D) were incubated with or without iron (Fe-NTA (FE), 100 μM).
(§1) FIGS. 4A-4E. […] (FIG. 4A) Top bar graph represents OCI-MY5 shRNA-Scramble and shRNA-AIF1 cells incubated with doxycycline to knockdown AIF1 for 2 days. Bottom bar graph represents OCI-MY5 EV and OCI-MY5 OE-AIF1 cells. […] Knockdown and overexpression of AIF1 was confirmed by western blots. […] AIF1, β-actin and γ-H2AX levels were analyzed by western blots. […] AIF1 and β-actin levels were analyzed by western blots. […] N, M, C respectively represent nucleus, mitochondria and cytoplasm. Blue arrows indicate the nuclear membrane and red arrowheads indicate AIF1 gold beads in cytoplasm or mitochondria. Black arrowheads indicate AIF1 gold beads in nuclei.
FIGS. 9A-9B. […] (FIG. 9B) Total RNA was extracted from OCI-MY5 EV and OE cells and Fpn1 mRNA was analyzed by Real time RT-PCR.
Human myeloma cell lines (ARP1, OCI-MY5 and their derivative cell lines) were cultured in RPMI 1640 (Invitrogen, Carlsbad, Calif.), supplemented with 10% heat-inactivated FBS (Invitrogen), penicillin (100 IU/mL), and streptomycin (100 μg/mL) in a humidified incubator at 37° C. and 5% CO2/95% air. To increase cellular iron concentration, ferric nitrilotriacatate (Fe-NTA) was used.

AIF1 [1] = experiment: Western blot of AIF1 cleavage in OCI-MY5 cells; format: cell-based, human; conditions: OCI-MY5 cells (FIG. 4C); melphalan 0-80 μM 4 hrs
Procedure: as §1
(§2) Cells were harvested and lysed with lysis buffer: 150 mM NaCl, 10 mM EDTA, 10 mM Tris, pH 7.4, 1% X-100 Triton. Cell lysates were subjected to SDS-PAGE, transferred onto a pure nitrocellulose membrane (BioRad), and blocked with 5% fat-free milk. […] Membranes were incubated with horseradish peroxidase (HRP)-conjugated anti-mouse secondary antibody (1:10,000, Santa Cruz Biotechnology, cat #: sc-2005) or anti-rabbit secondary antibody (1:10,000, AnaSpec Inc., cat #: AS-28177) for 1 h and chemi-luminescence signals were detected by HRP substrate (EMD Millipore).

[2] = cited from earlier work
[3] = tested on: ARP1 MM cells with TRIP13 overexpression; experiment: Cell viability of ARP1 cells with TRIP13-OE or EV under drug treatment; format: cell-based, human; conditions: for response of TRIP13-OE ARP1 cells to drug: ARP1-OE vs ARP1-EV, different doses (FIGS. 37A, 37B)
γ-H2AX = experiment: Western blot of phosphorylated γ-H2AX in OCI-MY5 cells; format: cell-based, human; conditions: OCI-MY5 (FIG. 4C); melphalan alone at high dose, with PAA at lower dose
Procedure: as §1, §2

OCI-MY5 WT cells = experiment: Transmission electron microscopy of PAA-treated OCI-MY5 WT cells; format: cell-based, human; conditions: 4 mM PAA one hour, fixed after 60 and 120 min
Procedure: (§3) FIGS. 3A-3B. […] Red boxes represent zooming image of mitochondria in OCI-MY5 WT cells (left) and OCI-MY5 WT cells treated with PA (right).
(§4) Electron microscopy was performed by the Central Microscopy Research Facility personnel at the University of Iowa. Images were captured on JEOL JEM 1230.

CD138+ MM cells = experiment: Pharmacological Ascorbic Acid viability assay (Trypan Blue), CD138+ cells from patients; format: cell-based, human
Procedure: (§5) CD138^+ MM cells and CD138^− non-MM cells were isolated from MGUS, SMM, and MM patient samples using anti-CD138 immunomagnetic beads (Miltenyl Biotec, Auburn, Calif.). […] After incubation, the cells were washed and cultured up to 24 h. Cell counts and viable cell number were determined using Trypan Blue staining.

AIF1 [4] = experiment: Western blot of nuclear AIF1 in ARP1 MM cell line; format: cell-based, human; conditions: TRIP13N and TRIP13OE MM cells (FIG. 38D)
CD138- non-MM cells = experiment: Pharmacological Ascorbic Acid viability assay (Trypan Blue), CD138- cells from patients; format: cell-based, human; conditions: CD138- BM cells from the same MM patients
Procedure: as §5, with “Pharmacological Ascorbic Acid (PAA) was kindly provided by Dr. Garry R. Buettner (University of Iowa). CD138^+” for “CD138^+”

AIF1 [5] = experiment: AIF1 immunolabeling electron microscopy in OCI-MY5 cells; format: cell-based, human; conditions: OCI-MY5, PAA 2 mM (FIG. 4E)
Procedure: as §1, §4

[6] = intraperitoneal administration of 4 g ascorbate per kilogram of body weight; cited from earlier work
caspases 3, 8, and 9 = experiment: Western blot of caspases in OCI-MY5 WT cells; format: cell-based, human; conditions: OCI-MY5 WT after PAA (FIG. 3B)
Procedure: as §3
(§6) Cells were harvested and lysed with lysis buffer: 150 mM NaCl, 10 mM EDTA, 10 mM Tris, pH 7.4, 1% X-100 Triton. Cell lysates were subjected to SDS-PAGE, transferred onto a pure nitrocellulose membrane (BioRad), and blocked with 5% fat-free milk. Primary antibodies for immunoblotting included: anti-AIF1 (1:1000, Cell Signaling), anti-RIP (1:1000, Santa Cruz Biotechnology), anti-RIP3 (1:1000, Cell Signaling), anti-Caspase3 (1:1000, Cell Signaling), anti-Caspase 8 (1:1000, Cell Signaling), anti-Caspase 9 (1:1000, Cell Signaling) Phosphorylated γH2AX (1:1000, Enzo Life Sciences), and β-actin (1:1000, Cell Signaling) as loading control. Membranes were incubated with horseradish peroxidase (HRP)-conjugated anti-mouse secondary antibody (1:10,000, Santa Cruz Biotechnology, cat #: sc-2005) or anti-rabbit secondary antibody (1:10,000, AnaSpec Inc., cat #: AS-28177) for 1 h and chemi-luminescence signals were detected by HRP substrate (EMD Millipore).

RIP1 and RIP3 = experiment: Western blot of RIP1 and RIP3 in OCI-MY5 WT cells; format: cell-based, human; conditions: OCI-MY5 WT after PAA (FIG. 3B)
Procedure: as §3, §6

ARP1 MM cells = experiment: Human myeloma xenograft mice, tumor burden by IVIS and survival; format: in vivo, NOD.Cγ-Rag1 mice; conditions: for MM cell growth (tumor burden) compared to the control group: p<0.05, melphalan, carfilzomib, bortezomib 3 mg/kg, 3 weeks
Procedure: NOD.Cγ-Rag1 mice 6-8 weeks old (Jackson laboratory, Bar Harbor, Me.) were injected intravenously with ARP1 MM cells (1×10^6) expressing luciferase. […] Bortezomib (3 mg/kg) was injected intraperitoneal once a day, 2 days a week for 3 weeks. The mice were euthanized when humane endpoint was reached.
Xenogen IVIS-200 an in vivo imaging system (IVIS) was used to analyze tumor burden and was indicated by quantification of luciferase intensity of mice pre- and post-treatments.
GEP data were analyzed by One-Way Anova test using log 2 transformed Affymetrix Signals and presented by boxplot. The comparisons of tumor burden were analyzed either by student t-test (2 groups) or by One-Way Anova test (>2 groups). Kaplan-Meier method was performed for survival with the use of SPSS 16.0 software (SPSS, Chicago, Ill.). Two-tailed p value at an alpha level of 0.05 was considered to indicate statistical significance. Graphs were generated using Prism 6 software.

[7] = tested on: KMS11, ARK and ARP1 cells; experiment: Erastin growth inhibition, PrestoBlue assay; format: cell-based, human; conditions: ferrostatin (Fer-1) 1 μM with 10 μM Erastin, 48 hours
Procedure: FIG. 23. Erastin Inhibits MM Cells Growth. KMS11, ARK and ARP1 cells were treated with 10 μM Erastin with or without ferrostatin (Fer-1) at 1 μM for 48 hours. Cell proliferation was measured by PrestoBlue assay and normalized to control cells to calculated growth inhibition.

O=C([O-])CN(CC(=O)[O-])CC(=O)[O-].[Fe+3] [Iron, ferric nitrilotriacatate]
cell viability after iron pre-treatment and PAA (OCI-MY5 cells; OCI-MY5 EV cells, Fe-NTA 100 μM 18 hrs (FIG. 2C)): rapid decrease in cells viability | cell viability after iron pre-treatment and PAA (OCI-MY5 cells; OCI-MY5 OE-Fpn1 cells, Fe-NTA 100 μM 18 hrs (FIG. 2D)): same effect

CC(=O)N[C@@H](CS)C(=O)O [NAC, N-acetyl cysteine]
effect of pre-treatment on PAA-induced cell death (OCI-MY5 cells): resistant to PAA

O=C1O[C@H]([C@@H](O)CO)C(O)=C1O [PAA, ascorbic acid]
AIF1 cleavage by western blotting (AIF1 [1]): increase in the AIF1 cleaved form | safety and tolerability ([2]; IV, animals and humans): safe and well tolerated | plasma concentrations from pharmacological doses ([2]; intravenous (IV) administration): ≥ 10 mM | response of TRIP13-OE ARP1 cells to drug [3]: sensitive | phosphorylated γ-H2AX level (γ-H2AX): induced γ-H2AX | viability after PAA treatment, AIF1-shRNA cells versus scrambled sequence (OCI-MY5 cells; OCI-MY5 AIF1-shRNA (FIG. 4A top)): significantly higher | PAA concentration able to kill cells (OCI-MY5 cells; OCI-MY5 EV cells): 4 mM | viability after PAA treatment, OE-AIF1 cells versus empty vector (OCI-MY5 cells; OCI-MY5 OE-AIF1 (FIG. 4A bottom)): significantly less viability | PAA concentration required to successfully kill cells (OCI-MY5 cells; OCI-MY5 OE-Fpn1 cells): 20 mM | type of cell death by TEM (OCI-MY5 WT cells): early necrosis (FIG. 3A, 60 mins) followed by late apoptosis | response to PAA of CD138+ cells from MGUS patients (CD138+ MM cells; 2 MGUS patients (FIG. 1C)): almost no response | survival of CD138+ cells in vitro following PAA treatment (CD138+ MM cells; CD138+ cells from MM patients, PAA 1 hr, washed, cultured up to 24 h): significantly decreased; also recorded: increased killing | effect of PAA on cell viability in SMM patients (CD138+ MM cells; cells from SMM patients (FIG. 1B)): same effect | AIF1 nuclear translocation (AIF1 [4]): induces AIF1 nuclear translocation | cell viability of CD138- BM cells following PAA treatment (CD138- non-MM cells): no significant change | cellular localization of AIF1 (AIF1 [5]): also in cytoplasm and nuclei | levels of ascorbate [6]: 20000 to 40000 µM | levels of ascorbyl radicals [6]: 0.5 µM | caspases 3, 8, and 9 activity (cleavage) (caspases 3, 8, and 9): marked increase | RIP1 and RIP3 cleavage (RIP1 and RIP3): cleaved | MM cell growth (tumor burden) compared to the control group (ARP1 MM cells; FIG. 1D, PAA 4 mg/kg): inhibited MM cell growth significantly | tumor burden with PAA in mice receiving iron chelator DFO at the same time (ARP1 MM cells; PAA 4 mg/kg IP once a day, DFO 100 mg/Kg twice a week IP (FIG. 25)): not able to decrease tumor burden | tumor progression by IVIS (ARP1 MM cells; PAA 4 mg/kg, once per day, IP, 15 days vs saline): significantly delayed

CC(C)C[C@H](NC(=O)[C@H](Cc1ccccc1)NC(=O)c1cnccn1)B(O)O [bortezomib]
growth inhibition in TRIP13-OE MM cells compared with EV controls ([3]; ARP1, 24 h, p<0.05 (FIGS. 27E, 27F)): significantly less growth inhibition | response of TRIP13-OE ARP1 cells to drug [3]: resistant | AIF1 nuclear translocation (AIF1 [4]): does not increase AIF1 nuclear localization | MM cell growth (tumor burden) compared to the control group (ARP1 MM cells; FIG. 1D, PAA 4 mg/kg): inhibited MM cell growth significantly

CC(C)C[C@H](NC(=O)[C@H](CCc1ccccc1)NC(=O)CN1CCOCC1)C(=O)N[C@@H](Cc1ccccc1)C(=O)N[C@@H](CC(C)C)C(=O)[C@@]1(C)CO1 [carfilzomib]
MM cell growth (tumor burden) compared to the control group (ARP1 MM cells; FIG. 1D, PAA 4 mg/kg): inhibited MM cell growth significantly

CCOC(=O)c1ccc(NC2CCCCC2)c(N)c1 [ferrostatin]
effect of ferroptosis inhibitor on erastin growth inhibition [7]: can be reversed

N[C@@H](Cc1ccc(N(CCCl)CCCl)cc1)C(=O)O [melphalan]
AIF1 cleavage by western blotting (AIF1 [1]): not able to induce AIF1 cleavage | phosphorylated γ-H2AX level (γ-H2AX): induced γ-H2AX | MM cell growth (tumor burden) compared to the control group (ARP1 MM cells; FIG. 1D, PAA 4 mg/kg): inhibited MM cell growth significantly | tumor burden compared among treatments (ARP1 MM cells; FIG. 1D, single agents vs combination): higher decrease in tumor burden | time at which presence of tumor was detected (ARP1 MM cells; highest dose of melphalan, single agent): only after four weeks | tumor burden at three weeks of treatment (ARP1 MM cells; melphalan 1, 3, 5 mg/kg with or without PAA (FIGS. 1E, 1F)): inhibit tumor growth better than PAA alone | MM mouse survival, compared with PAA alone (ARP1 MM cells; single agent melphalan 3 and 5 mg/kg (FIG. 1G)): extended MM mouse survival

bathocuproinedisulfonic acid disodium salt [BCS]
effect of pre-treatment on PAA-induced cell death (OCI-MY5 cells): not able to block cellular death

catalase
effect of pre-treatment on PAA-induced cell death (OCI-MY5 cells): resistant to PAA
